Measured values from patent US20230021483A1, “[…] […] METHOD AND CLASSIFICATION OF PHARMACEUTICAL COMPONENTS BY USING TRANSCRIPTOMES” (National Institutes of Biomedical Innovation, Health and …, priority 2016, published 2023).

Tested on: adjuvant-associated biological themes in LV, SP, LN
Conditions: LV, ID
Summary of the method: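 Enrichment score S sums −log(p) over consensus themes whose names contain a pre-selected adjuvant-associated term such as "stress" or "cytokine". Consensus requires a theme in all three mice of a group, p<0.05. Themes come from TargetMine analysis of genes with eij/ei(c)>2.0, Fisher's exact test, Holm-Bonferroni-corrected.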

CC(O)COC[C@H]1O[C@@H]2O[C@H]3[C@H](O)[C@@H](O)[C@@H](O[C@H]4[C@H](O)[C@@H](O)[C@@H](O[C@H]5[C@H](O)[C@@H](O)[C@@H](O[C@H]6[C@H](O)[C@@H](O)[C@@H](O[C@H]7[C@H](O)[C@@H](O)[C@@H](O[C@H]8[C@H](O)[C@@H](O)[C@@H](O[C@H]1[C@H](O)[C@H]2O)O[C@@H]8COCC(C)O)O[C@@H]7COCC(C)O)O[C@@H]6COCC(C)O)O[C@@H]5COCC(C)O)O[C@@H]4COCC(C)O)O[C@@H]3COCC(C)O (stereo partly drawn) [bCD, Hydroxypropyl-beta-cyclodextrin]
GO annotation: Cytokine-cytokine receptor interaction (Term: cytokine): 4.24 | GO annotation: Cytokine-cytokine receptor interaction|Endocytosis (Term: cytokine): 7.76 | GO annotation: I-kappaB kinase/NF-kappaB signaling (Term: NF-kappa B signaling pathway): 4.21 | GO annotation: NF-kappa B signaling pathway (Term: NF-kappa B signaling pathway): 6.86 | GO annotation: TNF signaling pathway (Term: TNF signaling pathway): 10.6 | GO annotation: activation of immune response (Term: immune response): 0 | GO annotation: activation of innate immune response (Term: innate immune response): 0 | GO annotation: acute inflammatory response (Term: inflammatory response): 0 | GO annotation: adaptive immune response (Term: adaptive immune response): 0 | GO annotation: apoptotic process (Term: apoptosis): 0 | GO annotation: apoptotic signaling pathway (Term: apoptosis): 0 | GO annotation: cell chemotaxis (Term: chemotaxis): 5.73 | GO annotation: cell death (Term: cell death): 5.8 | GO annotation: cell migration (Term: migration): 0 | GO annotation: cellular response to cytokine stimulus (Term: cytokine): 0 | GO annotation: cellular response to interferon-alpha (Term: IFN alpha): 0 | GO annotation: cellular response to stress (Term: stress): 0 | GO annotation: chemokine production (Term: chemokine): 0 | GO annotation: chemokine-mediated signaling pathway (Term: chemokine): 0 | GO annotation: chemotaxis (Term: chemotaxis): 0 | GO annotation: cytokine biosynthetic process (Term: cytokine): 0 | GO annotation: cytokine metabolic process (Term: cytokine): 0 | GO annotation: cytokine production (Term: cytokine): 3.82 | GO annotation: cytokine secretion (Term: cytokine): 0 | GO annotation: cytokine-mediated signaling pathway (Term: cytokine): 0 | GO annotation: death (Term: cell death): 0 | GO annotation: defense response (Term: defense response): 8.51 | GO annotation: defense response to Gram-positive bacterium (Term: defense response): 0 | GO annotation: defense response to bacterium (Term: defense response): 0 | GO annotation: defense response to other organism (Term: defense response): 0 | GO annotation: defense response to protozoan (Term: defense response): 0 | GO annotation: defense response to virus (Term: defense response): 0 | GO annotation: granulocyte chemotaxis (Term: chemotaxis): 0 | GO annotation: granulocyte migration (Term: migration): 0 | GO annotation: immune response (Term: immune response): 0 | GO annotation: immune response-activating signal transduction (Term: immune response): 0 | GO annotation: immune response-regulating signaling pathway (Term: immune response): 0 | GO annotation: inflammatory response (Term: inflammatory response): 10.9 | GO annotation: innate immune response (Term: innate immune response): 0 | GO annotation: innate immune response-activating signal transduction (Term: innate immune response): 0 | GO annotation: interferon-alpha production (Term: IFN alpha): 0 | GO annotation: intrinsic apoptotic signaling pathway (Term: apoptosis): 0 | GO annotation: leukocyte chemotaxis (Term: chemotaxis): 0 | GO annotation: leukocyte migration (Term: migration): 0 | GO annotation: leukocyte migration involved in inflammatory response (Term: inflammatory response): 0 | GO annotation: lymphocyte chemotaxis (Term: chemotaxis): 0 | GO annotation: lymphocyte migration (Term: migration): 0 | GO annotation: myeloid leukocyte migration (Term: migration): 0 | GO annotation: negative regulation of apoptotic process (Term: apoptosis): 0 | GO annotation: negative regulation of cell death (Term: cell death): 0 | GO annotation: negative regulation of cytokine production (Term: cytokine): 0 | GO annotation: negative regulation of defense response (Term: defense response): 0 | GO annotation: negative regulation of immune response (Term: immune response): 0 | GO annotation: negative regulation of innate immune response (Term: innate immune response): 0 | GO annotation: negative regulation of programmed cell death (Term: cell death): 0 | GO annotation: neutrophil chemotaxis (Term: chemotaxis): 0 | GO annotation: neutrophil migration (Term: migration): 0 | GO annotation: positive regulation of I-kappaB kinase/NF-kappaB signaling (Term: NF-kappa B signaling pathway): 0 | GO annotation: positive regulation of adaptive immune response (Term: adaptive immune response): 0 | GO annotation: positive regulation of apoptotic process (Term: apoptosis): 0 | GO annotation: positive regulation of cell death (Term: cell death): 0 | GO annotation: positive regulation of cell migration (Term: migration): 0 | GO annotation: positive regulation of chemokine production (Term: chemokine): 0 | GO annotation: positive regulation of chemotaxis (Term: chemotaxis): 0 | GO annotation: positive regulation of cytokine biosynthetic process (Term: cytokine): 0
